Measurements taken from PubChem BioAssay (NCI).
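Grown in 96-well plates, cells were treated for 48 hours with each compound at five concentrations. Insufficient inhibition: endpoint recorded as highest concentration tested. TGI is the concentration that stops growth completely.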

Legend:
Assay in all cases: DTP human tumour cell line panel, 48 h
[1] = system: SK-MEL-28 melanoma
[2] = system: IGROV1 ovarian
[3] = system: OVCAR-8 ovarian
[4] = system: EKVX NSCLC
[5] = system: HCT-116 colon
[6] = system: SK-MEL-2 melanoma
[7] = system: 786-0 renal
[8] = system: RPMI-8226 leukemia
[9] = system: OVCAR-5 ovarian
[10] = system: M14 melanoma
[11] = system: KM12 colon
[12] = system: NCI/ADR-RES ovarian
[13] = system: SF-268 CNS
[14] = system: MOLT-4 leukemia
[15] = system: K-562 leukemia
[16] = system: SK-MEL-5 melanoma
[17] = system: UACC-62 melanoma
[18] = system: HL-60(TB) leukemia
[19] = system: SW-620 colon
[20] = system: LOX IMVI melanoma
[21] = system: MALME-3M melanoma
[22] = system: A498 renal
[23] = system: RXF 393 renal
[24] = system: NCI-H226 lung
[25] = system: HT29 colon
[26] = system: MDA-MB-435
[27] = system: NCI-H23 lung
[28] = system: MDA-N
[29] = system: ACHN renal
[30] = system: COLO 205 colon
[31] = system: DU-145 prostate
[32] = system: MDA-MB-231 breast
[33] = system: BT-549 breast
[34] = system: SNB-19 CNS
[35] = system: HCT-15 colon
[36] = system: UO-31 renal
[37] = system: SN12C renal
[38] = system: OVCAR-3 ovarian
[39] = system: U251 CNS
[40] = system: T-47D breast
[41] = system: PC-3 prostate
[42] = system: CAKI-1 renal
[43] = system: HS 578T breast
[44] = system: MCF7 breast
[45] = system: CCRF-CEM leukemia
[46] = system: SK-OV-3 ovarian
[47] = system: SF-539 CNS

Question: How did the TGI [1] turn out when `CC(C)(Oc1ccc(Cl)cc1)C(=O)N(C(=O)N1CCCCC1)c1ccccc1` was run?
Answer: 44.6 µM

Question: And the TGI [2]?
Answer: 22.3 µM

Question: And the TGI [3]?
Answer: 31.4 µM

Question: What about the TGI [4] of the same molecule?
Answer: 21.9 µM

Question: And the TGI [5]?
Answer: 21.2 µM

Question: And the TGI [6]?
Answer: 32 µM

Question: What about the TGI [7] of the same molecule?
Answer: 27.6 µM

Question: And the TGI [8]?
Answer: > 100 µM

Question: What about the TGI [9] of the same molecule?
Answer: 36.7 µM

Question: What about the TGI [10] of the same molecule?
Answer: 52.1 µM

Question: And the TGI [11]?
Answer: 41.2 µM

Question: And the TGI [12]?
Answer: 37.4 µM

Question: And the TGI [13]?
Answer: 56.7 µM

Question: What about the TGI [14] of the same molecule?
Answer: 84.8 µM

Question: What about the TGI [15] of the same molecule?
Answer: > 100 µM

Question: What about the TGI [16] of the same molecule?
Answer: 24.2 µM

Question: What about the TGI [17] of the same molecule?
Answer: 27.5 µM

Question: And the TGI [18]?
Answer: 21 µM

Question: What about the TGI [19] of the same molecule?
Answer: > 100 µM

Question: And the TGI [20]?
Answer: 26.6 µM

Question: What about the TGI [21] of the same molecule?
Answer: 85.2 µM

Question: And the TGI [22]?
Answer: 32.8 µM

Question: What about the TGI [23] of the same molecule?
Answer: 33.3 µM

Question: And the TGI [24]?
Answer: 51 µM

Question: What about the TGI [25] of the same molecule?
Answer: 66.1 µM

Question: What about the TGI [26] of the same molecule?
Answer: > 100 µM

Question: What about the TGI [27] of the same molecule?
Answer: 33.1 µM

Question: And the TGI [28]?
Answer: > 100 µM

Question: What about the TGI [29] of the same molecule?
Answer: 28.1 µM

Question: And the TGI [30]?
Answer: > 100 µM

Question: What about the TGI [31] of the same molecule?
Answer: 27.8 µM

Question: What about the TGI [32] of the same molecule?
Answer: 25.5 µM

Question: And the TGI [33]?
Answer: 30.4 µM

Question: What about the TGI [34] of the same molecule?
Answer: 42.5 µM

Question: And the TGI [35]?
Answer: 24.6 µM

Question: What about the TGI [36] of the same molecule?
Answer: 42 µM

Question: What about the TGI [37] of the same molecule?
Answer: 47 µM

Question: And the TGI [38]?
Answer: 75.1 µM

Question: And the TGI [39]?
Answer: 39.2 µM

Question: What about the TGI [40] of the same molecule?
Answer: 9.68 µM

Question: And the TGI [41]?
Answer: 20 µM

Question: What about the TGI [42] of the same molecule?
Answer: 29.9 µM

Question: And the TGI [43]?
Answer: 58.5 µM

Question: And the TGI [44]?
Answer: 47.3 µM

Question: And the TGI [45]?
Answer: > 100 µM

Question: What about the TGI [46] of the same molecule?
Answer: 40.4 µM

Question: What about the TGI [47] of the same molecule?
Answer: 25.3 µM
